Where two headings read alike, the source gives them in different places.
Test system: murine spleen cells, LPS induced (B-cells)
Assay: LPS induced lymphocyte proliferation in mouse spleen cells in vitro
Type: cell-based, mouse (Balb/C)
Settings: for activity at 0.01 µg/mL / activity at 0.1 µg/mL / activity at 1 µg/mL / activity at 2.5 µg/mL / activity at 5 µg/mL / activity at 25 µg/mL / activity at 50 µg/mL: Mus musculus, B-cell
From the text: (1) Mitogen-(Lipopolysaccharide, LPS or Con A) induced lymphocyte proliferation using murine spleen cells (in vitro)
1. […] LPS is a mitogen which acts preferentially on B-cells. […] Con A is considered a T-cell mitogen.
1. Balb/C male mice, 7-8 weeks old, are used up to 20-24 weeks of age.
2. The animals are sacrificed by cervical dislocation and the animals' left sides swabbed with 70% ethanol. An incision is made between the lower ribs and pelvis, laterally from front to back, and the skin retracted. Aseptic technique is to be observed from this point on.
3. The spleen is gently removed with sterile forceps. […] When all spleens have been collected and cleaned they are placed in a second petri dish containing 3 ml cold RPMI.
4. Spleen cell suspensions are prepared by gentle mincing of the tissue with a sterile blade and filtering through #100 stainless steel mesh.
6. An aliquot of the above suspension is prepared for cell counting as follows: 0.1 ml of suspension is diluted to 1.0 ml with 3% acetic acid and let stand at room temperature for at least five minutes. The sample is then diluted 1:100 with "Isoton II" (Curtis-Matheson Co.) and counted in a coulter counter.
MURINE SPLENOCYTE STIMULATION WITH CONCANAVALIN A (CON A), LIPOPOLYSACCHARIDE (LPS), AND ALLOGENEIC SPLENOCYTES (LMC).
There is set forth below the standard procedure which should be modified according to the solubility and other properties of the particular compound tested.
Add ~10 ml RPMI to 1.79 g HEPES and vortex until completely dissolved. […] Allow to warm temperature before use.
6. LPS (Sigma, E, coli serotype #011:84)--~1 mg/ml. […] Remove ~10 ml for dissolving HEPES (0.358 g) and filter HEPES solution. Add four 25 mg bottles of LPS to remaining media and incubate at 37° C. for 1 hour. Filter through 0.22 μm filters, add filtered HEPES, aliquot in 2 ml and store at -70° C.
8. Tritiated thymidine (^3 H-TdR, Schwartz-Mann, 6 Ci/mM). Remove a slightly larger volume of ^3 H-TdR than needed from vial with a 1 cc syringe and place volume in the cap of a small sterile plastic tube. […] Vortex thoroughly before adding to plates.
1. Animals are sacrificed by cervical dislocation killing one from each group and processing the cells individually before killing the next animal. Swab each animal with 70% ethanol before surgery. […] Use 8 vertical strokes (or enough to break up all tissue) with Teflon-tipped homogenizer. Filter each sample through a 100 mesh screen into a 50 ml tube. […] After all samples have been spun, vortex each briefly and let sit for 1 hour. Vortex each sample ~5 seconds, waiting ~10 seconds between each sample. Let sit 5 minutes, then pipet cell suspension into 5 ml (12×75 mm) tube being careful not to remove any sediment. Remove 50 ul cell suspension using micropipetter, carefully wipe pipet tip with kimwipe and pipet into 20 ml Isoton in Coulter counter vial, rinsing pipet several times in the Isoton. Add 6 drops of CyMet and swirl vial to mix. Use the following Coulter counter settings: Amplification-1, Threshold-10, and Aperture Current-1. Clean counter with Isoterge the morning of experiment and count background before standardizing with CH 0.60 Hematology Controls. After cell counts are obtained, dilute to 6×10^6 cells/ml with supplemented RPMI and aliquot into 3 tubes for the 3 assays.
1. Pipet 100 μl control media (supplemented RPMI) or appropriate dilution of mitogen (starting with lowest concentration) into microtiter plate using Titertek multi-channel pipetter. Place plates in 37° C. CO2 incubator with CO2 set at 0.5 after each plate has been pipetted. Pipet 100 μl responder cells into wells starting with most dilute mitogen concentration. Place plates in incubator as they are filled and after all plates are in incubator, let sit for 10-20 minutes. Wrap plates with plastic wrap, recover with top, replace in incubator, and reset CO2 to ~0.05. Save ~50 ml supplemented RPMI at 4° C. for thymidine dilution.

SMILES: Oc1ncnc2c1nc1n2CCS1 [NPT 16416, 3-hydroxy-7,8-dihydrothiazolo-[3,2e]-purine]
- activity at 0.01 µg/mL (read-out: Hi Mitogen D/C LPS): 105%
- activity at 0.01 µg/mL (read-out: Lo Mitogen D/C LPS): 130%
- activity at 0.1 µg/mL (drug 100 ng/ml, LPS 5 μg/ml, drug/control, read-out: Lo Mitogen D/C LPS): 157%
- activity at 0.1 µg/mL (drug 100 ng/ml, LPS 100 μg/ml, drug/control, read-out: Hi Mitogen D/C LPS): 114%
- activity at 1 µg/mL (drug 1,000 ng/ml, LPS 5 μg/ml, drug/control, read-out: Lo Mitogen D/C LPS): 135%
- activity at 1 µg/mL (drug 1,000 ng/ml, LPS 5 μg/ml, read-out: LPS D/C (maximum values)): 201%
- activity at 1 µg/mL (drug 1,000 ng/ml, LPS 100 μg/ml, drug/control, read-out: Hi Mitogen D/C LPS): 117%
- activity at 2.5 µg/mL (drug 2,500 ng/ml, LPS 5 μg/ml, drug/control, read-out: Lo Mitogen D/C LPS): 136%
- activity at 2.5 µg/mL (drug 2,500 ng/ml, LPS 100 μg/ml, drug/control, read-out: Hi Mitogen D/C LPS): 107%
- activity at 5 µg/mL (drug 5,000 ng/ml, LPS 5 μg/ml, drug/control, P < 0.05, read-out: Lo Mitogen D/C LPS): 168%
- activity at 5 µg/mL (drug 5,000 ng/ml, LPS 100 μg/ml, drug/control, read-out: Hi Mitogen D/C LPS): 105%
- activity at 25 µg/mL (drug 25,000 ng/ml, LPS 5 μg/ml, drug/control, P < 0.005, read-out: Lo Mitogen D/C LPS): 249%
- activity at 25 µg/mL (drug 25,000 ng/ml, LPS 5 μg/ml, read-out: LPS D/C (maximum values)): 236%
- activity at 25 µg/mL (drug 25,000 ng/ml, LPS 100 μg/ml, drug/control, P < 0.025, read-out: Hi Mitogen D/C LPS): 157%
- activity at 50 µg/mL (drug 50,000 ng/ml, LPS 5 μg/ml, drug/control, P < 0.005, read-out: Lo Mitogen D/C LPS): 280%
- activity at 50 µg/mL (drug 50,000 ng/ml, LPS 100 μg/ml, drug/control, P < 0.005, read-out: Hi Mitogen D/C LPS): 189%
- CPM + LPS (drug 10 ng/ml, LPS 5 μg/ml): 1,458 CPM
- CPM + LPS (drug 10 ng/ml, LPS 100 μg/ml): 8,603 CPM
- CPM + LPS (drug 100 ng/ml, LPS 5 μg/ml): 1,760 CPM
- CPM + LPS (drug 100 ng/ml, LPS 100 μg/ml): 8,518 CPM
- CPM + LPS (drug 1,000 ng/ml, LPS 5 μg/ml): 1,515 CPM
- CPM + LPS (drug 1,000 ng/ml, LPS 100 μg/ml): 8,689 CPM
- CPM + LPS (drug 2,500 ng/ml, LPS 5 μg/ml): 1,522 CPM
- CPM + LPS (drug 2,500 ng/ml, LPS 100 μg/ml): 7,975 CPM
- CPM + LPS (drug 5,000 ng/ml, LPS 5 μg/ml): 1,881 CPM
- CPM + LPS (drug 5,000 ng/ml, LPS 100 μg/ml): 7,788 CPM
- CPM + LPS (drug 25,000 ng/ml, LPS 5 μg/ml): 2,789 CPM
- CPM + LPS (drug 25,000 ng/ml, LPS 100 μg/ml): 11,683 CPM
- CPM + LPS (drug 50,000 ng/ml, LPS 5 μg/ml): 3,132 CPM
- CPM + LPS (drug 50,000 ng/ml, LPS 100 μg/ml): 14,065 CPM
- effect on B-cell response / LPS induced proliferation, in words (in vitro): enhance B-cell proliferation
- augmentation of LPS induced lymphocyte proliferation (in vitro, mouse spleen cells): 30-180%
- effect on B-cell response / LPS induced proliferation, in words (in vitro, listed as Ia): stimulating the B-cell response

— patent publication US4510144A, “Methods of imparting immunomodulating activity with dihydrothiazolo purine derivatives” (Newport Pharmaceuticals International, priority 1982, dated 1985)
